Experimental data: paper PMC12736473, “Development and Validation of LC-MS/MS Method for Nintedanib and BIBF 1202 Monitoring in Plasma of Patients with Progressive Pulmonary Fibrosis Associated with Systemic Sclerosis” (Pharmaceutics, 2025)
Like-named read-outs stand apart in the source and are kept apart here.

Experiments:
[1] = Short-term stability in human plasma at ambient temperature (≤30 °C); assay type: in vitro ADME; details: for Short-term stability, Stability [%]: human plasma, ≤30 °C, vs reference samples
Procedure: (§1) The stability of NIN and BIBF 1202 in human plasma, including in the short term, autosampler, and freeze–thaw, was evaluated for the QC samples analyzed at two concentrations, 5.00 ng/mL (LQC1) and 170.00 ng/mL (HQC), studied in six replicates per test. The short-term stability of NIN and BIBF 1202 was assessed for the samples that were stored at ambient temperature (≤30 °C) for at least two hours, which were analyzed and compared with freshly prepared samples. Autosampler stability was determined by storing samples in the autosampler at 10 ± 2 °C for at least […]. Freeze–thaw stability was examined over three cycles, in which samples were frozen at ≤−14 °C for 12 h and subsequently thawed at ambient temperature (≤30 °C).
(§2) Autosampler stability was examined by storing samples at 10 ± 2 °C for up to 48 h. No impact of three freeze–thaw cycles (freezing at ≤−14 °C and thawing at ambient temperature) was observed on the stability of NIN or BIBF 1202.

[2] = Autosampler stability at 10 ± 2 °C; assay type: physicochemical, human; details: after 45 h
Procedure: as §1, §2

[3] = Freeze–thaw stability in human plasma, three cycles; assay type: in vitro ADME; details: for Freeze–thaw stability, Stability [%]: human plasma, 3 cycles (≤−14 °C / ambient); for Impact of freeze–thaw cycles on stability: three cycles, freezing at ≤−14 °C, thawing at ambient temperature
Procedure: as §1, §2

[4] = NIN and BIBF 1202 plasma concentrations (C0, Cmax) in patients treated with NIN, UPLC-MS/MS; assay type: in vivo, human; details: for Cmax: human, read-out: Mean Concentration Cmax; for Cmax / Mean Concentration C0: patient plasma; for Concentration in the patient sample (chromatogram): single patient sample after administration of 100 mg dose
Procedure: Whole blood was collected via standard venipuncture from 24 patients diagnosed with CTD-PPF. Patients received treatment with NIN, of whom 8 were administered a dose of 100 mg twice daily and 16 received 150 mg twice daily. Blood samples were obtained prior to the first daily NIN dose (trough concentration, C0) and 2–3 h afterward (maximum concentration, Cmax). Following collection, samples of whole blood with NIN and metabolite were centrifuged, and then plasma was stored at −70 °C. This study was approved by the Local Bioethics Committee of the National Institute of Geriatrics, Rheumatology, and Rehabilitation in Warsaw (KBT-5/3/2024).
To prepare the samples, 200 μL of plasma was spiked with 20 μL of IS (NIN-d3) and vortexed. Protein precipitation was carried out using 500 μL of chilled ACN solution after we previously neutralized the samples with 50 μL of 2 M sodium carbonate (Na2CO3). The samples were subsequently mixed on an orbital shaker (Vibrax, IKA, Staufen, Germany) for 30 s at 1800 and centrifuged for 10 min at 13,000 rpm, 3 °C. Then, 200 μL of the supernatant was transferred into autosampler vials for LC-MS/MS analysis under the conditions described in Section 2.6 and Section 2.7.
The UPLC Acquity I-class Plus system (Milford, MA, USA, Waters), equipped with a quaternary gradient pump, column oven, degasser unit, and autosampler, was used. The autosampler and column were maintained at 10 ± 2 °C and 40 ± 2 °C, respectively. The isocratic elution was carried out using a mobile phase consisting of 0.1% formic acid in water and acetonitrile (35:65, v/v). The mobile phase flowed through a Zorbax SB-C18 column (100 mm × 3.0 mm, 3.5 µm; Santa Clara, CA, USA, Agilent Technologies) at a flow rate of 0.3 mL/min. The system was equipped with an ASSY FRIT pre-column (0.2 µm, 2.1 mm; Milford, MA, USA, Waters). To prevent the carry-over effect, after the analysis, the injection needle was washed with a mixture consisting of acetonitrile, methanol, isopropyl alcohol, water, and formic acid (250:250:250:250:1, v/v/v/v/v).
Mass spectrometric analysis was performed using a XEVO-TQ-XS quadrupole mass spectrometer (Milford, MA, USA, Waters). Multiple Reaction Monitoring (MRM) chromatograms were acquired and processed with MassLynx 4.2 software (Milford, MA, USA, Waters). Ionization was carried out in positive ion mode using electrospray ionization (ESI+). MS parameters of instruments and analyzed compounds are detailed in Table 1.
The LC-MS/MS method developed and fully validated in this study was used to analyze the concentrations (C0 and Cmax) of nintedanib and its metabolite BIBF 1202 in human plasma. Twenty-four patients were treated with two doses of NIN (8 patients: 100 or 16 patients: 150 mg twice daily). In total, 48 samples were collected from patients at two time points: a morning dose at the trough level, and a dose 2–3 h (Cmax) after the morning dose administration. The concentrations of NIN and its metabolite were determined in the plasma of 24 patients (Male/Female 8:16, mean age 56.2, age range 35–75) with progressive pulmonary fibrosis associated with systemic sclerosis. The obtained results are presented in Table 7 and illustrated graphically (Figure 4).

[5] = parameters: method as in PK study presented in the literature; details: ref PK study presented in the literature; cited from earlier work
[6] = parameters: method as in PMID 26072676; details: cited from earlier work
[7] = 2 h at ambient temperature (≤30 °C)
[8] = NIN 100 mg twice daily, n = 8, 2–3 h after morning dose
[9] = NIN 150 mg twice daily, n = 16, 2–3 h after morning dose
[10] = NIN 100 mg twice daily, n = 8, trough (before first daily dose)
[11] = NIN 150 mg twice daily, n = 16, trough (before first daily dose)

| Compound | Short-term stability, Stability [%] ([1]; 2 h, HQC (170.00 ng/mL)) | Short-term stability, Stability [%] ([1]; 2 h, LQC1 (5.00 ng/mL)) | Effect of storing plasma samples on concentration [1, 7] | Effect of storing plasma samples on concentration ([1]; 4 h at ≤30 °C) | Autosampler stability, Stability [%] ([2]; HQC (170.00 ng/mL)) | Autosampler stability, Stability [%] ([2]; LQC1 (5.00 ng/mL)) | Freeze–thaw stability, Stability [%] ([3]; HQC (170.00 ng/mL)) | Freeze–thaw stability, Stability [%] ([3]; LQC1 (5.00 ng/mL)) | Impact of freeze–thaw cycles on stability [3] | Cmax [4, 8] | Cmax [4, 9] | Mean Concentration C0 [4, 10] | Mean Concentration C0 [4, 11] | Concentration in the patient sample (chromatogram) [4] | Time of peak plasma concentrations after administration [5] | Rate of diarrhea ([6]; patients who continued NIN) | Rate of diarrhea ([6]; patients who initiated NIN) | Short-term stability, Stability [%] ([1]; 4 h, HQC (170.00 ng/mL)) | Short-term stability, Stability [%] ([1]; 4 h, LQC1 (5.00 ng/mL)) |
| --- | --- | --- | --- | --- | --- | --- | --- | --- | --- | --- | --- | --- | --- | --- | --- | --- | --- | --- | --- |
| CN1CCN(CC(=O)N(C)c2ccc(N/C(=C3\C(=O)Nc4cc(C(=O)O)ccc43)c3ccccc3)cc2)CC1 [BIBF 1202] | 102.3% | 100.8% | did not cause changes | reduction in the BIBF signal | 98.9% | 98.5% | 105.9% | 94.7% | No impact | 26.6 ng/mL | 57.8 ng/mL | 9.81 ng/mL | 35.20 ng/mL | 28.0 ng/mL |  |  |  |  |  |
| COC(=O)c1ccc2c(c1)NC(=O)/C2=C(\Nc1ccc(N(C)C(=O)CN2CCN(C)CC2)cc1)c1ccccc1 [NIN, Nintedanib] |  |  | did not cause changes | no effect | 100.6% | 96.4% | 99.7% | 94.6% | No impact | 16.5 ng/mL | 28.7 ng/mL | 7.33 ng/mL | 18.60 ng/mL | 12.3 ng/mL | 2 to 3 h | 60.1% | 71% | 101.3% | 100.7% |
